Where two headings read alike, the source gives them in different places.
Legend:
[1] = system: rat oligodendrocyte progenitor cells; experiment: Promotive activity of rat oligodendrocyte progenitor cell differentiation-1 (MBP gene expression, mRNA); type: cell-based; conditions: 4 days
How it was run: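 Primary OPCs from 1-day-old SD rat forebrain, isolated by shaking off mixed glial cultures and seeded at 2×10^3 cells/well in B27/CNTF (10 ng/mL) differentiation medium with compound. MBP mRNA measured by one-step TaqMan real-time PCR and expressed as MBP/β-actin ratio.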

mouse cuprizone model = experiment: Myelin regeneration promoting action in mouse cuprizone model (LFB staining of corpus callosum); type: in vivo; conditions: 4 weeks after 6 weeks cuprizone diet, untreated = 100%
Text: C57BL/6J mice (8 weeks old, male) were fed a diet containing 0.3% cuprizone (bis(cyclohexanone)oxaldihydrazone) (Research Diets, Inc. #D17042709) for 6 weeks to induce demyelination. Subsequently, the mice were divided into groups of 8 mice based on the body weight, the diet was switched to a cuprizone-free diet (Research Diets, Inc. #D10001), and administration of the test compound or vehicle was started. […] After administration of 4 weeks, the mice were euthanized, perfused with a 4% paraformaldehyde solution, and then brain sampling was performed. The brain sample obtained was embedded in paraffin to prepare a coronal section specimen at Bregma+1. The specimen was stained with Luxor Fast Blue (LFB) to visualize the myelin sheath, and images were acquired using a fluorescence microscope (KEYENCE #BZ-X710). The corpus callosum area and the LFB staining positive area in the corpus callosum of the obtained pathological specimen image were measured using an image analysis application (KEYENCE #BZ-H3C/BZ-H3XD), and the ratio (LFB staining positive area in the corpus callosum/corpus callosum area) was calculated. The intact group is a non-pathogenic group, and the […] control group were sampled after feeding the diet containing 0.3% cuprizone for 6 weeks.
In the table, the ratio of LFB staining positive area in the corpus callosum/corpus callosum area of the untreated group, fed with the cuprizone-free diet for 6 weeks, was regarded as 100%. As a result, the control group, fed with the cuprizone-containing diet for 6 weeks, decreased the ratio to 23.6%, and was confirmed to progress demyelination. The group, in which the cuprizone-containing diet was fed for 6 weeks and switched to the cuprizone-free diet, and the vehicle was administered, improved the ratio of area of LFB staining positive/area of corpus callosum to 50.1%. […] In addition, GSK239512 described in WO2013/107336 pamphlet was evaluated in the test to show the ratio of LFB staining positive area/corpus callosum area of 45.8%, in which no demyelination regeneration promoting action was shown as compared with the vehicle-administered group.

[2] = Evaluation of brain penetration in mice (blood and brain concentration at brain Cmax); type: in vivo, mouse; conditions: C57BL/6J mice; for Concentration in blood (mean ± SD) at brain Cmax / Concentration in brain (mean ± SD) at brain Cmax / Concentration in blood at brain Cmax / Concentration in brain at brain Cmax: n=3; for Kp: male, C57BL/6J, mouse, brain/plasma, po
How it was run: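 Male C57BL/6J mice (8 weeks, n=3) dosed orally once at 1 […] mg/kg; plasma and brain collected at 0.25, 0.5, 1, 2, 4 and 8 h. Compound extracted with acetonitrile from brain homogenate and plasma, quantified by LC/MS/MS.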

human VDR = molecular target: T1, human VDR (Homo sapiens, UniProt P11473); experiment: Evaluation of VDR transcription activity in human osteoblasts (HOS cells), luciferase reporter; conditions: Activity (EC50, VDR transcription activity), HOS cells transfected with human VDR, human RXRα and DR3 luciferase reporter; 21 hours
T1 sequence (P11473 1-427): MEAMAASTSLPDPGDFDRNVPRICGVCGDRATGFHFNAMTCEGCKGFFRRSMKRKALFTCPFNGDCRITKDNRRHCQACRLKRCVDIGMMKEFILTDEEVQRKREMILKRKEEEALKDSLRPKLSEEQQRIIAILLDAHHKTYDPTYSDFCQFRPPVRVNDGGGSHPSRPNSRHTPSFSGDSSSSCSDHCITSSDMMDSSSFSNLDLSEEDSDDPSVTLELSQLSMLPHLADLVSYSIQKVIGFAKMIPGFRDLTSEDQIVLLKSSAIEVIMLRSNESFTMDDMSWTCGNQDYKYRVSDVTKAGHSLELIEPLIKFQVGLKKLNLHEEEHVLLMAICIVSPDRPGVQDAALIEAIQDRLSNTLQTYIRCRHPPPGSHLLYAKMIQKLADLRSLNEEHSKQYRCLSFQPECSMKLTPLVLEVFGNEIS
T1 sequence (P19793 1-462 partner): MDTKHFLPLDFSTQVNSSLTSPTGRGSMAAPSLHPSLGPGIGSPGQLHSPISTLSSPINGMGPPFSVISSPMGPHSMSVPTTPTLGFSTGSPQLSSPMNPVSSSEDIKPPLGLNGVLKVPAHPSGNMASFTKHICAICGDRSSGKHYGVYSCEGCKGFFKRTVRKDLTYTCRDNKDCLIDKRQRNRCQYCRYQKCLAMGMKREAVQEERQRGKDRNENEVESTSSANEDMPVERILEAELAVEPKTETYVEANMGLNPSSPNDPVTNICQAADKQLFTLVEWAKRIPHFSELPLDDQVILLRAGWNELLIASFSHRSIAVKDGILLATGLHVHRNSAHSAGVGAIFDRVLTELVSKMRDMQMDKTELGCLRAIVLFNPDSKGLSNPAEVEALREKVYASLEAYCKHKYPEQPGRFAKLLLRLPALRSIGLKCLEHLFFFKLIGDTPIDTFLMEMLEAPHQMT

[3] = system: rat oligodendrocyte progenitor cells; experiment: Promotive activity of rat oligodendrocyte progenitor cell differentiation-2 (immunostaining of MBP); type: cell-based; conditions: vitamin D derivative 2 μM, T3 30 nM, 4 days
How it was run: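 Rat OPCs prepared by shaking in separation medium about 22 h at 37 °C, 200 rpm, and collecting the supernatant.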

[4] = Evaluation of calcium increasing action in normal mice (serum calcium); type: in vivo, mouse; conditions: for Serum calcium concentration: repeated oral once a day, 2 weeks, C57BL/6J mice; for Calcium concentration Fluctuation range: vs vehicle 8.9 mg/dL
Description: After acclimatizing C57BL/6J mice (7 weeks old, male) for 1 week, the mice were divided into groups of 5 mice based on the body weight, and administration of the compound or vehicle was started. The administration solution used was a compound (in ethanol) or ethanol diluted 100-fold with 0.1% Trion X-100 (SIGMA #X100-100ML)/saline, and the repeated oral administration at once a day was performed. After administration of 2 weeks, euthanasia was performed by collecting all blood under general anesthesia.

[5] = 1 mg/kg, 1 mg/kg single oral dose, read-out: Concentration in brain/in blood ratio at brain Cmax
[6] = 0.2 mg/kg, 0.2 mg/kg single oral dose, read-out: Concentration ratio in brain/in blood at brain Cmax

| Concentration in blood (mean ± SD) at brain Cmax ([2]; 1 mg/kg single oral dose) | Concentration in brain (mean ± SD) at brain Cmax ([2]; 1 mg/kg single oral dose) | Kp [2, 5] | Serum calcium concentration ([4]; 20 μg/kg) | Calcium concentration Fluctuation range ([4]; 20 μg/kg) | Serum calcium concentration ([4]; 60 μg/kg) | Calcium concentration Fluctuation range ([4]; 60 μg/kg) | Serum calcium concentration ([4]; 200 μg/kg) | Calcium concentration Fluctuation range ([4]; 200 μg/kg) | Concentration in blood at brain Cmax ([2]; 0.2 mg/kg single oral dose) | Concentration in brain at brain Cmax ([2]; 0.2 mg/kg single oral dose) | Kp [2, 6] | SMILES | further results |
| --- | --- | --- | --- | --- | --- | --- | --- | --- | --- | --- | --- | --- | --- |
| – | – | – | – | – | – | – | – | – | – | – | – | O=C1CCCN1c1ccc(Oc2ccc3c(c2)CCN(C2CCC2)CC3)nc1 [GSK239512, reference compound] | enhancement in the MBP gene expression compared with the wells added with DMSO ([1]; 1 μM): 1.8 times; activation at 1 µM ([1]; Rattus norvegicus, Oligodendrocyte progenitor cell, 96 h, read-out: promotive activity at T3 base (MBP gene expression; DMSO 0%, T3 100%), MBP/β actin mRNA): 18%; Ratio (%): area of LFB staining positive/area of corpus callosum, mean (mouse cuprizone model; 10 mg/kg oral once a day): 45.8% |
| 74 ± 1 nM | 80 ± 9 pmol/g | 1.08 | – | – | – | – | – | – | – | – | – | C[C@H](CN1CC[C@@H](CC(F)F)C1)[C@H]1CC[C@H]2/C(=C/C=C3C[C@@H](O)C[C@H](O)C3)CCC[C@]12C [Compound B043, (1R,3R)-5-(2-((1R,3aS,7aR,E)-1-((S)-1-((S)-3-(2,2-difluoroethyl)pyrrolidin-1-yl)propan-2-yl)-7a-methyloctahydro-4H-inden-4-ylidene)ethylidene)cyclohexane-1,3-diol] | Ratio (%): area of LFB staining positive/area of corpus callosum, mean (mouse cuprizone model; 2 μg/kg oral once a day): 84.9%; EC50 (human VDR): 0.01 to 0.1 µM |
| 251 ± 9 nM | 562 ± 50 pmol/g | 2.24 | – | – | – | – | – | – | – | – | – | C[C@H](CN1CC[C@@H](C(C)(F)F)C1)[C@H]1CC[C@H]2/C(=C/C=C3C[C@@H](O)C[C@H](O)C3)CCC[C@]12C [Compound B034, (1R,3R)-5-(2-((1R,3aS,7aR,E)-1-((S)-1-((R)-3-(1,1-difluoroethyl)pyrrolidin-1-yl)propan-2-yl)-7a-methyloctahydro-4H-inden-4-ylidene)ethylidene)cyclohexane-1,3-diol] | Mean (number of MBP-positive cells/number of Hoechst33342-positive cells) ([3]; Test 1): 0.57; Ratio (%): area of LFB staining positive/area of corpus callosum, mean (mouse cuprizone model; 6 μg/kg oral once a day): 88.1% |
| – | – | – | 8.9 mg/dL | 0 mg/dL | 8.8 mg/dL | -0.1 mg/dL | 9.0 mg/dL | 0.1 mg/dL | 72.2 ± 10.4 nM | 171.2 ± 37.4 pmol/g | 2.35 | C[C@H](CN1CCOC[C@@H]1C)[C@H]1CC[C@H]2/C(=C/C=C3C[C@@H](O)C[C@H](O)C3)CCC[C@]12C [Compound G004, (1R,3R)-5-(2-((1R,3aS,7aR,E)-7a-methyl-1-((S)-1-((S)-3-methylmorpholino)propan-2-yl)octahydro-4H-inden-4-ylidene)ethylidene)cyclohexane-1,3-diol] | Mean (number of MBP-positive cells/number of Hoechst33342-positive cells) ([3]; Test 3): 0.27 |
| – | – | – | 8.9 mg/dL | 0 mg/dL | 8.9 mg/dL | 0 mg/dL | 8.6 mg/dL | -0.3 mg/dL | 58.9 ± 0.5 nM | 137.8 ± 11.5 pmol/g | 2.38 | C[C@H](CN1CCOCC1(C)C)[C@H]1CC[C@H]2/C(=C/C=C3C[C@@H](O)C[C@H](O)C3)CCC[C@]12C [Compound G006, (1R,3R)-5-(2-((1R,3aS,7aR,E)-1-((S)-1-(3,3-dimethylmorpholino)propan-2-yl)-7a-methyloctahydro-4H-inden-4-ylidene)ethylidene)cyclohexane-1,3-diol] | Mean (number of MBP-positive cells/number of Hoechst33342-positive cells) ([3]; Test 4): 0.50 |

Source: patent publication US20230348376A1 (TEIJIN PHARMA LIMITED, priority 2020, published 2023)
